Results reported in patent US9693992B2 (MannKind Corporation, priority 2010, dated 2017).
pEC50: −log10 of the molar value.

Each molecule was assayed against IRE-1α (Homo sapiens (Human), UniProt O75460) (assay: Cellular EC50: endogenous XBP-1 splicing in myeloma cells (MM.1s, DTT stress, RT-PCR)). Details: average cellular EC50, XBP-1 splicing in myeloma cells.
Assay type: cell-based
Method: Human myeloma MM.1s cells are incubated with a compound for 1.25 hours before stressing the cells with 2 mM dithiothreitol (DTT). After an additional 45 minutes (2 hours total) with compound and DTT, the cells are harvested with TRIZOL® (a mono-phasic solution of phenol and guanidine isothiocyanate), and total RNA is prepared as directed by the manufacturer (Invitrogen). Human XBP-1 is amplified by RT-PCR with the following primers, which flank the 26 base unconventional intron excised by IRE-1α:
RT-PCR of unstressed (U) cells then generates the upper band. When cells are stressed (S) with the endoplasmic reticulum (ER) stressing agent DTT, IRE-1α is activated due to accumulating unfolded protein and the resulting RT-PCR product is 26 base pairs shorter.
Compounds which pass specificity assays are assayed for cellular EC50 using endogenous XBP-1 splicing in myeloma cells. XBP-1 is regulated through the excision of a 26 nucleotide intron from the XBP-1 mRNA by the highly specific endoribonuclease activity of IRE-1α. […] This splicing event is used to measure IRE-1α activity on XBP-1 mRNA in cells and tissues.
Briefly, compounds are incubated in the presence or absence of an ER stress agent (e.g., DTT), and the ratio of XBP-1u (unspliced) to XBP-1s (spliced) is quantified by RT-PCR. The ED50 is determined as the 50% XBP-1s to total XPB-1 levels.

Chain of IRE-1α (O75460 19-977): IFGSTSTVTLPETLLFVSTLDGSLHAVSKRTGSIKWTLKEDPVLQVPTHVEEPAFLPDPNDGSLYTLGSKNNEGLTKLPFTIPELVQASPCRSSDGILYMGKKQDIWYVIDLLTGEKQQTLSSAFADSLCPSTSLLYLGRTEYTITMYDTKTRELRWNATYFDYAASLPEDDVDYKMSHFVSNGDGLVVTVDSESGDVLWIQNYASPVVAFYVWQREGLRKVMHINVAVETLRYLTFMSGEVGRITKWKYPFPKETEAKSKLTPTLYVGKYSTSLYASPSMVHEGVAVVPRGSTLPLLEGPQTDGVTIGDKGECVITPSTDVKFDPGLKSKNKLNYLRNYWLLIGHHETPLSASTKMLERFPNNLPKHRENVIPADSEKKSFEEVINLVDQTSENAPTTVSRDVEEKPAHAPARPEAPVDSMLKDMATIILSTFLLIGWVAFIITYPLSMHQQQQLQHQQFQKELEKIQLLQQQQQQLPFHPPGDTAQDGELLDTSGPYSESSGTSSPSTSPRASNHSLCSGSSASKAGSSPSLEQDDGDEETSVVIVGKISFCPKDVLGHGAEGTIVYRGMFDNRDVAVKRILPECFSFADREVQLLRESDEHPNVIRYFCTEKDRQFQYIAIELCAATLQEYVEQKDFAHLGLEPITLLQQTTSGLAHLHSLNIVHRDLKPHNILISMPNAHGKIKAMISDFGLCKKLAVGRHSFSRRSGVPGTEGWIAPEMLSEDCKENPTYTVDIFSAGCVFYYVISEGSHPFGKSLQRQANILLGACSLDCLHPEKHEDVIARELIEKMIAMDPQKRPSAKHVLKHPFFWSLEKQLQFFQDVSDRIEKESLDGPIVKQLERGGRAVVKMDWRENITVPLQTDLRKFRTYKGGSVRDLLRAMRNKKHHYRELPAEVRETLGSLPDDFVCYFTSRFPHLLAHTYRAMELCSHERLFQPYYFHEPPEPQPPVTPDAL

**Q.** With `Cn1c(CCC(=O)O)nc2ccc(O)c(C=O)c21` [Example 240] as the molecule, how does the pEC50 read?
**A.** < 5.00

**Q.** How did the pEC50 turn out when `COCCNC(=O)CCc1nc2c(C=O)c(O)ccc2n1C` [Example 241] was run?
**A.** < 5.00

**Q.** `Cn1c(CCC(=O)N2CCOCC2)nc2c(C=O)c(O)ccc21` [Example 242] was tested. Which pEC50 did it give?
**A.** < 5.00

**Q.** With `Cn1c(CCC(=O)NCCN2CCOCC2)nc2c(C=O)c(O)ccc21` [Example 243] as the molecule, how does the pEC50 read?
**A.** < 5.00

**Q.** With `CN1CCN(C(=O)CCc2nc3c(C=O)c(O)ccc3n2C)CC1` [Example 244] as the molecule, how does the pEC50 read?
**A.** < 5.00

**Q.** How did the pEC50 turn out when `CCOC(=O)CCc1nc2c(C=O)c(O)ccc2n1C` [Example 245] was run?
**A.** > 5.00

**Q.** How did the pEC50 turn out when `Cn1c(CCC(=O)O)nc2c(C=O)c(O)ccc21` [Example 246] was run?
**A.** < 5.00

**Q.** With `CCOC(=O)CCc1nc2c(C=O)c(O)ccc2o1` [Example 247] as the molecule, how does the pEC50 read?
**A.** < 5.00

**Q.** With `O=Cc1c(O)ccc2oc(CCC(=O)O)nc12` [Example 248] as the molecule, how does the pEC50 read?
**A.** < 5.00

**Q.** `COCCNC(=O)CCc1nc2c(C=O)c(O)ccc2o1` [Example 249] was tested. Which pEC50 did it give?
**A.** < 5.00

**Q.** How did the pEC50 turn out when `O=Cc1c(O)ccc2oc(CCC(=O)N3CCOCC3)nc12` [Example 250] was run?
**A.** < 5.00

**Q.** How did the pEC50 turn out when `CN1CCN(C(=O)CCc2nc3c(C=O)c(O)ccc3o2)CC1` [Example 251] was run?
**A.** < 5.00

**Q.** How did the pEC50 turn out when `CCNC(=O)CCc1nc2c(C=O)c(O)ccc2o1` [Example 252] was run?
**A.** < 5.00

**Q.** How did the pEC50 turn out when `O=Cc1c(O)ccc2oc(CCC(=O)NCCN3CCOCC3)nc12` [Example 253] was run?
**A.** > 5.00

**Q.** How did the pEC50 turn out when `CC(C(=O)N1CCOCC1)c1nc2c(C=O)c(O)ccc2o1` (centres unmarked) [Example 254] was run?
**A.** < 5.00

**Q.** With `Cc1nc2c(C=O)c(O)ccc2o1` [Example 255] as the molecule, how does the pEC50 read?
**A.** > 5.00

**Q.** `Cc1nc2ccc(O)c(C=O)c2o1` [Example 256] was tested. Which pEC50 did it give?
**A.** < 5.00

**Q.** `O=Cc1c(O)ccc2ocnc12` [Example 257] was tested. Which pEC50 did it give?
**A.** < 5.00

**Q.** `COCCNC(=O)c1cc2c(C=O)c(O)ccc2s1` [Example 258] was tested. Which pEC50 did it give?
**A.** < 5.00

**Q.** With `O=Cc1c(O)ccc2sc(C(=O)N3CCOCC3)cc12` [Example 259] as the molecule, how does the pEC50 read?
**A.** < 5.00

**Q.** `CN1CCN(C(=O)c2cc3c(C=O)c(O)ccc3s2)CC1` [Example 260] was tested. Which pEC50 did it give?
**A.** < 5.00

**Q.** How did the pEC50 turn out when `CCNC(=O)c1cc2c(C=O)c(O)ccc2s1` [Example 261] was run?
**A.** > 5.00

**Q.** How did the pEC50 turn out when `O=Cc1c(O)ccc2sc(C(=O)NCCN3CCOCC3)cc12` [Example 262] was run?
**A.** > 5.00

**Q.** With `CN(C)CCNC(=O)c1cc2c(C=O)c(O)ccc2s1` [Example 263] as the molecule, how does the pEC50 read?
**A.** < 5.00

**Q.** `COC(=O)Cc1cc2c(C=O)c(O)ccc2s1` [Example 264] was tested. Which pEC50 did it give?
**A.** < 5.00

**Q.** How did the pEC50 turn out when `O=Cc1c(O)ccc2sc(CC(=O)O)cc12` [Example 265] was run?
**A.** < 5.00

**Q.** With `COCCNC(=O)CCc1cc2c(C=O)c(O)ccc2s1` [Example 266] as the molecule, how does the pEC50 read?
**A.** > 5.00

**Q.** With `CCOC(=O)CCc1cc2c(C=O)c(O)ccc2s1` [Example 267] as the molecule, how does the pEC50 read?
**A.** < 5.00

**Q.** How did the pEC50 turn out when `O=Cc1c(O)ccc2sc(CCC(=O)N3CCOCC3)cc12` [Example 268] was run?
**A.** < 5.00

**Q.** `CCNC(=O)CCc1cc2c(C=O)c(O)ccc2s1` [Example 269] was tested. Which pEC50 did it give?
**A.** < 5.00

**Q.** With `CN(C)CCNC(=O)CCc1cc2c(C=O)c(O)ccc2s1` [Example 271] as the molecule, how does the pEC50 read?
**A.** > 5.00

**Q.** With `COCCNC(=O)c1cc2c(C=O)c(O)ccc2[nH]1` [Example 273] as the molecule, how does the pEC50 read?
**A.** < 5.00

**Q.** `O=Cc1c(O)ccc2[nH]c(C(=O)N3CCOCC3)cc12` [Example 274] was tested. Which pEC50 did it give?
**A.** < 5.00

**Q.** `CN1CCN(C(=O)c2cc3c(C=O)c(O)ccc3[nH]2)CC1` [Example 275] was tested. Which pEC50 did it give?
**A.** < 5.00

**Q.** How did the pEC50 turn out when `CCNC(=O)c1cc2c(C=O)c(O)ccc2[nH]1` [Example 276] was run?
**A.** < 5.00

**Q.** With `O=Cc1c(O)ccc2[nH]c(C(=O)NCCN3CCOCC3)cc12` [Example 277] as the molecule, how does the pEC50 read?
**A.** < 5.00

**Q.** With `CN(C)CCNC(=O)c1cc2c(C=O)c(O)ccc2[nH]1` [Example 278] as the molecule, how does the pEC50 read?
**A.** < 5.00

**Q.** How did the pEC50 turn out when `CCOC(=O)c1cc2c(C=O)c(O)ccc2[nH]1` [Example 279] was run?
**A.** < 5.00

**Q.** With `CCOC(=O)c1cc2c(C=O)c(O)ccc2o1` [Example 280] as the molecule, how does the pEC50 read?
**A.** < 5.00

**Q.** How did the pEC50 turn out when `O=Cc1c(O)ccc2oc(C(=O)O)cc12` [Example 281] was run?
**A.** < 5.00

**Q.** `COCCNC(=O)c1cc2c(C=O)c(O)ccc2o1` [Example 282] was tested. Which pEC50 did it give?
**A.** < 5.00

**Q.** With `O=Cc1c(O)ccc2oc(C(=O)N3CCOCC3)cc12` [Example 283] as the molecule, how does the pEC50 read?
**A.** < 5.00

**Q.** With `CN1CCN(C(=O)c2cc3c(C=O)c(O)ccc3o2)CC1` [Example 284] as the molecule, how does the pEC50 read?
**A.** < 5.00

**Q.** How did the pEC50 turn out when `CCNC(=O)c1cc2c(C=O)c(O)ccc2o1` [Example 285] was run?
**A.** > 5.00

**Q.** How did the pEC50 turn out when `O=Cc1c(O)ccc2oc(C(=O)NCCN3CCOCC3)cc12` [Example 286] was run?
**A.** > 5.00

What follows are molecules tested on XBP-1 splicing (assay: Inhibition of endogenous XBP-1 splicing in RPMI 8226 cells with thapsigargin (RT-PCR)). Details: 300 nM, 2 hours.
Assay type: cell-based, human
Method: PCR amplification products were run on a 4% agarose gel and stained with ethidium bromide. The inverse image is shown.
RPMI 8226 cells were grown in monolayer culture using Dulbecco's Modified Eagle Medium (DMEM) supplemented with 10% fetal calf serum (FCS) at 37° C. and 5% CO2. Compounds were kept as 10 mM stock in DMSO at −20° C. and diluted in medium to 10 μM. Thapsigargin (Tg) was resuspended in DMSO and diluted in medium.
Procedures for measuring XBP-1s and XBP-1u mRNAs have been described previously (Volkmann et al., J. Biol. Chem. 286, 12743-55, 2011). Briefly, total RNA was harvested from cells or tissue using TRIZOL® (Invitrogen) according to the manufacture's procedures. After ethanol precipitation and resuspension of the RNA, RIBOGREEN® (Invitrogen) was used to quantify the yield- and normalize the RNA concentration in the source tube containing isolated RNA. RT-PCR was performed by oligo dT priming, […]® II (Invitrogen) and reverse transcription using the […] GOLD® Kit (Applied Biosystems) according to the manufacturer's protocols. Primers for human XBP-1 were
All DNA oligos were purchased from IDT DNA Technologies. PCR reactions were run on a Bio-Rad PTC-100® 96-well thermocycler; heating at 94° C. for 30 seconds, annealing at 58° C. for 30 seconds polymerizing at 72° C. for 30 seconds for 35 cycles.

**Q.** Which “conversion of XBP-1u to XBP-1s” value does the source give for `C/C=C(/C)C(=O)O[C@H]1C(C)=C2[C@H]([C@@H]1OC(=O)CCCCCCC)[C@@](C)(OC(C)=O)C[C@H](OC(=O)CCC)[C@@]1(O)[C@H]2OC(=O)[C@@]1(C)O` [Thapsigargin] here?
**A.** near complete conversion of XBP-1u to XBP-1s

Each molecule was assayed on human myeloma RPMI8226 tumor xenografts (assay: RPMI8226 xenograft efficacy model). Details: after cessation of therapy.
Assay type: in vivo, SCID mice
Method: SCID mice are evaluated for their ability to support implantation of desired tumor cells in support of model development and characterization. Mice are injected intravenously […] or implanted either subcutaneously (SC) or intraperitoneally (IP). To generate a relevant animal model mimicking human disease, it is desirable that all three approaches are evaluated for improved implantation rates and relevant disease progression, as is well known in the art. SC injections provide an easy way to measure tumor growth and efficacy, and IV and IP injections represent a more physiologically relevant model of human tumor spread. SC injections are given primarily in the flank, while IV injections are administered in the tail vein. Mice are manually restrained for SC and IP injections, and a Broome mouse restrainer is used for IV injections.
SCID mice are implanted with tumor cells (human RPMI8226 myeloma cells) via IP, IV or SC routes based on the results from the xenograft model development studies (above). Mice are treated with compound or mock treated (vehicle) for a period of up to 4-5 weeks. Compound administration can be via IV, IP, PO or SC routes. […]
Mice are monitored for tumor growth, regression and general health. […] Tumor growth is measured by calipers, ultrasound, or by abdominal lavage. Biomarkers in the blood or tumor can evaluated (primarily XBP-1 splicing). […]

**Q.** `CC(C)C[C@H](NC(=O)[C@H](Cc1ccccc1)NC(=O)c1cnccn1)B(O)O` [bortezomib, [(1R)-3-methyl-1-[[(2S)-1-oxo-3-phenyl-2-[(pyrazinylcarbonyl)amino]propyl]amino]butyl]boronic acid] was tested. Which tumor recurrence did it give?
**A.** tumors often recurred and grew into large masses
